Laboratory results: US10738028B2, “Spiro three-membered ring, spiro five-membered ring peptide deformylase inhibitor and use thereof in antibacteria and anti-tumor” (priority 2016, dated 2020)

What was measured:
Format in all cases: cell-based
[1] = test system: Enterococcus faecalis (EFA); assay: MIC, two-fold agar dilution (CLSI), clinical isolates; settings: for Anti-bacterial activity (MIC), strain EFA 15-1: clinical isolate EFA 15-1; for Anti-bacterial activity (MIC), strain EFA 15-2: clinical isolate EFA 15-2; for Anti-bacterial activity (MIC), strain EFA 15-3: clinical isolate EFA 15-3; for Anti-bacterial activity (MIC), strain EFA 15-4: clinical isolate EFA 15-4; for Anti-bacterial activity (MIC), strain EFA 15-5: clinical isolate EFA 15-5; for Anti-bacterial activity (MIC), strain EFA 15-6: clinical isolate EFA 15-6; for Anti-bacterial activity (MIC), strain EFA 15-9: clinical isolate EFA 15-9
How it was run: (§1)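 Following the American Clinical and Laboratory Standards Institute procedure, agar two-fold dilution served to determine minimum inhibitory concentrations.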

[2] = test system: Enterococcus faecium (EFM); assay: as above; settings: for Anti-bacterial activity (MIC), strain EFM 15-1: clinical isolate EFM 15-1; for Anti-bacterial activity (MIC), strain EFM 15-2: clinical isolate EFM 15-2; for Anti-bacterial activity (MIC), strain EFM 15-3: clinical isolate EFM 15-3; for Anti-bacterial activity (MIC), strain EFM 15-4: clinical isolate EFM 15-4; for Anti-bacterial activity (MIC), strain EFM 15-5: clinical isolate EFM 15-5; for Anti-bacterial activity (MIC), strain EFM 15-6: clinical isolate EFM 15-6
How it was run: as §1

[3] = test system: Escherichia coli (including ESBLs, non-ESBLs); assay: as above; settings: for Anti-bacterial activity (MIC), strain ECO+ 15-1: clinical isolate ECO+ 15-1; for Anti-bacterial activity (MIC), strain ECO+ 15-2: clinical isolate ECO+ 15-2; for Anti-bacterial activity (MIC), strain ECO+ 15-3: clinical isolate ECO+ 15-3; for Anti-bacterial activity (MIC), strain ECO+ 15-4: clinical isolate ECO+ 15-4; for Anti-bacterial activity (MIC), strain ECO− 15-1: clinical isolate ECO− 15-1; for Anti-bacterial activity (MIC), strain ECO− 15-2: clinical isolate ECO− 15-2; for Anti-bacterial activity (MIC), strain ECO− 15-3: clinical isolate ECO− 15-3; for Anti-bacterial activity (MIC), strain ECO− 15-4: clinical isolate ECO− 15-4
How it was run: as §1

[4] = test system: Moraxella catarrhalis (BCA); assay: as above; settings: for Anti-bacterial activity (MIC), strain BCA 14-1: clinical isolate BCA 14-1; for Anti-bacterial activity (MIC), strain BCA 14-4: clinical isolate BCA 14-4; for Anti-bacterial activity (MIC), strain BCA 14-5: clinical isolate BCA 14-5; for Anti-bacterial activity (MIC), strain BCA 14-6: clinical isolate BCA 14-6; for Anti-bacterial activity (MIC), strain BCA 14-7: clinical isolate BCA 14-7; for Anti-bacterial activity (MIC), strain BCA 14-8: clinical isolate BCA 14-8; for Anti-bacterial activity (MIC), strain BCA 14-10: clinical isolate BCA 14-10
How it was run: as §1

[5] = test system: Streptococcus pneoumoniae (SPN); assay: as above; settings: for Anti-bacterial activity (MIC), strain SPN 16-2: clinical isolate SPN 16-2; for Anti-bacterial activity (MIC), strain SPN 16-4: clinical isolate SPN 16-4
How it was run: as §1

[6] = test system: methicillin-resistant Staphylococcus aureus (MRSA); assay: as above; settings: for Anti-bacterial activity (MIC), strain MRSA 15-1: clinical isolate MRSA 15-1; for Anti-bacterial activity (MIC), strain MRSA 15-3: clinical isolate MRSA 15-3; for Anti-bacterial activity (MIC), strain MRSA 15-4: clinical isolate MRSA 15-4
How it was run: as §1

[7] = test system: methicillin-resistant Staphylococcus epidermidis (MRSE); assay: as above; settings: for Anti-bacterial activity (MIC), strain MRSE 15-1: clinical isolate MRSE 15-1; for Anti-bacterial activity (MIC), strain MRSE 15-2: clinical isolate MRSE 15-2; for Anti-bacterial activity (MIC), strain MRSE 15-3: clinical isolate MRSE 15-3; for Anti-bacterial activity (MIC), strain MRSE 15-7: clinical isolate MRSE 15-7
How it was run: as §1

[8] = test system: methicillin-sensitive Staphylococcus aureus (MSSA); assay: as above; settings: for Anti-bacterial activity (MIC), strain MSSA 15-3: clinical isolate MSSA 15-3; for Anti-bacterial activity (MIC), strain MSSA 15-4: clinical isolate MSSA 15-4; for Anti-bacterial activity (MIC), strain MSSA 15-5: clinical isolate MSSA 15-5; for Anti-bacterial activity (MIC), strain MSSA 15-6: clinical isolate MSSA 15-6
How it was run: as §1

[9] = test system: methicillin-sensitive Staphylococcus epidermidis (MSSE); assay: as above; settings: for Anti-bacterial activity (MIC), strain MSSE 15-3: clinical isolate MSSE 15-3; for Anti-bacterial activity (MIC), strain MSSE 15-4: clinical isolate MSSE 15-4; for Anti-bacterial activity (MIC), strain MSSE 15-5: clinical isolate MSSE 15-5; for Anti-bacterial activity (MIC), strain MSSE 15-6: clinical isolate MSSE 15-6
How it was run: as §1

[10] = test system: HCT-116 colorectal cancer cell line; assay: CCK-8 proliferation inhibition; settings: Homo sapiens, HCT-116, 72 h, concentration of 30 μM; 72 hours; CCK-8; read-out: HCT116 inhibition rate/%
How it was run: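 Cells seeded at 2000 cells/well, cultured overnight at 37 °C, 5% CO2, then exposed to compound (DMSO; control 1‰ DMSO) for 72 h in McCoy's 5A with 10% newborn bovine serum. Viability read with 1:10 diluted CCK-8.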

CCCC[C@H](CC(=O)NO)C(=O)N1CC2(CC2)C[C@H]1C(=O)Nc1cccnn1 [Example 48, (S)-5-((R)-2-(2-(hydroxyamino)-2-oxoethyl)hexanoyl)-N-(pyridazin-3-yl)-5-azaspiro[2.4]heptane-6-amide]
Anti-bacterial activity (MIC), strain EFA 15-1 [1]: > 32 µg/mL | Anti-bacterial activity (MIC), strain EFA 15-2 [1]: > 32 µg/mL | Anti-bacterial activity (MIC), strain EFA 15-3 [1]: > 32 µg/mL | Anti-bacterial activity (MIC), strain EFA 15-4 [1]: > 32 µg/mL | Anti-bacterial activity (MIC), strain EFA 15-5 [1]: > 32 µg/mL | Anti-bacterial activity (MIC), strain EFA 15-6 [1]: > 32 µg/mL | Anti-bacterial activity (MIC), strain EFA 15-9 [1]: 32 µg/mL | Anti-bacterial activity (MIC), strain EFM 15-1 [2]: > 32 µg/mL | Anti-bacterial activity (MIC), strain EFM 15-2 [2]: > 32 µg/mL | Anti-bacterial activity (MIC), strain EFM 15-3 [2]: > 32 µg/mL | Anti-bacterial activity (MIC), strain EFM 15-4 [2]: > 32 µg/mL | Anti-bacterial activity (MIC), strain EFM 15-5 [2]: 1 µg/mL | Anti-bacterial activity (MIC), strain EFM 15-6 [2]: 8 µg/mL | Anti-bacterial activity (MIC), strain ECO+ 15-1 [3]: 8 µg/mL | Anti-bacterial activity (MIC), strain ECO+ 15-2 [3]: > 32 µg/mL | Anti-bacterial activity (MIC), strain ECO+ 15-3 [3]: 32 µg/mL | Anti-bacterial activity (MIC), strain ECO+ 15-4 [3]: 32 µg/mL | Anti-bacterial activity (MIC), strain ECO− 15-1 [3]: > 32 µg/mL | Anti-bacterial activity (MIC), strain ECO− 15-2 [3]: > 32 µg/mL | Anti-bacterial activity (MIC), strain ECO− 15-3 [3]: > 32 µg/mL | Anti-bacterial activity (MIC), strain ECO− 15-4 [3]: > 32 µg/mL | Anti-bacterial activity (MIC), strain BCA 14-1 [4]: > 32 µg/mL | Anti-bacterial activity (MIC), strain BCA 14-4 [4]: > 32 µg/mL | Anti-bacterial activity (MIC), strain BCA 14-5 [4]: 8 µg/mL | Anti-bacterial activity (MIC), strain BCA 14-6 [4]: > 32 µg/mL | Anti-bacterial activity (MIC), strain BCA 14-7 [4]: 16 µg/mL | Anti-bacterial activity (MIC), strain BCA 14-8 [4]: 16 µg/mL | Anti-bacterial activity (MIC), strain BCA 14-10 [4]: > 32 µg/mL | Anti-bacterial activity (MIC), strain SPN 16-2 [5]: 8 µg/mL | Anti-bacterial activity (MIC), strain SPN 16-4 [5]: 8 µg/mL | Anti-bacterial activity (MIC), strain MRSA 15-1 [6]: 2 µg/mL | Anti-bacterial activity (MIC), strain MRSA 15-2 ([6]; clinical isolate MRSA 15-2): 8 µg/mL | Anti-bacterial activity (MIC), strain MRSA 15-3 [6]: 2 µg/mL | Anti-bacterial activity (MIC), strain MRSA 15-4 [6]: 8 µg/mL | Anti-bacterial activity (MIC), strain MRSE 15-1 [7]: 8 µg/mL | Anti-bacterial activity (MIC), strain MRSE 15-2 [7]: 8 µg/mL | Anti-bacterial activity (MIC), strain MRSE 15-3 [7]: 8 µg/mL | Anti-bacterial activity (MIC), strain MRSE 15-7 [7]: 8 µg/mL | Anti-bacterial activity (MIC), strain MSSA 15-3 [8]: 8 µg/mL | Anti-bacterial activity (MIC), strain MSSA 15-4 [8]: 8 µg/mL | Anti-bacterial activity (MIC), strain MSSA 15-5 [8]: 8 µg/mL | Anti-bacterial activity (MIC), strain MSSA 15-6 [8]: > 32 µg/mL | Anti-bacterial activity (MIC), strain MSSE 15-3 [9]: 8 µg/mL | Anti-bacterial activity (MIC), strain MSSE 15-4 [9]: 32 µg/mL | Anti-bacterial activity (MIC), strain MSSE 15-5 [9]: 8 µg/mL | Anti-bacterial activity (MIC), strain MSSE 15-6 [9]: 8 µg/mL | inhibition at 30 µM [10]: 20%

CCCC[C@H](CC(=O)NO)C(=O)N1CC2(CC2)C[C@H]1C(=O)Nc1ncccc1F [Example 49, (S)—N-(3-fluoropyridin-2-yl)-5-((R)-2-(2-(hydroxyamino)-2-oxoethyl)hexanoyl)-5-azaspiro[2.4]heptane-6-amide]
Anti-bacterial activity (MIC), strain EFA 15-1 [1]: > 32 µg/mL | Anti-bacterial activity (MIC), strain EFA 15-2 [1]: > 32 µg/mL | Anti-bacterial activity (MIC), strain EFA 15-3 [1]: > 32 µg/mL | Anti-bacterial activity (MIC), strain EFA 15-4 [1]: > 32 µg/mL | Anti-bacterial activity (MIC), strain EFA 15-5 [1]: > 32 µg/mL | Anti-bacterial activity (MIC), strain EFA 15-6 [1]: > 32 µg/mL | Anti-bacterial activity (MIC), strain EFA 15-9 [1]: > 32 µg/mL | Anti-bacterial activity (MIC), strain EFM 15-1 [2]: > 32 µg/mL | Anti-bacterial activity (MIC), strain EFM 15-2 [2]: > 32 µg/mL | Anti-bacterial activity (MIC), strain EFM 15-3 [2]: > 32 µg/mL | Anti-bacterial activity (MIC), strain EFM 15-4 [2]: > 32 µg/mL | Anti-bacterial activity (MIC), strain EFM 15-5 [2]: 2 µg/mL | Anti-bacterial activity (MIC), strain EFM 15-6 [2]: 2 µg/mL | Anti-bacterial activity (MIC), strain ECO+ 15-1 [3]: > 32 µg/mL | Anti-bacterial activity (MIC), strain ECO+ 15-2 [3]: > 32 µg/mL | Anti-bacterial activity (MIC), strain ECO+ 15-3 [3]: > 32 µg/mL | Anti-bacterial activity (MIC), strain ECO+ 15-4 [3]: > 32 µg/mL | Anti-bacterial activity (MIC), strain ECO− 15-1 [3]: > 32 µg/mL | Anti-bacterial activity (MIC), strain ECO− 15-2 [3]: > 32 µg/mL | Anti-bacterial activity (MIC), strain ECO− 15-3 [3]: > 32 µg/mL | Anti-bacterial activity (MIC), strain ECO− 15-4 [3]: > 32 µg/mL | Anti-bacterial activity (MIC), strain BCA 14-1 [4]: > 32 µg/mL | Anti-bacterial activity (MIC), strain BCA 14-4 [4]: > 32 µg/mL | Anti-bacterial activity (MIC), strain BCA 14-5 [4]: 4 µg/mL | Anti-bacterial activity (MIC), strain BCA 14-6 [4]: > 32 µg/mL | Anti-bacterial activity (MIC), strain BCA 14-7 [4]: > 32 µg/mL | Anti-bacterial activity (MIC), strain BCA 14-8 [4]: > 32 µg/mL | Anti-bacterial activity (MIC), strain BCA 14-10 [4]: > 32 µg/mL | Anti-bacterial activity (MIC), strain SPN 16-2 [5]: 4 µg/mL | Anti-bacterial activity (MIC), strain SPN 16-4 [5]: 4 µg/mL | Anti-bacterial activity (MIC), strain MRSA 15-1 [6]: 8 µg/mL | Anti-bacterial activity (MIC), strain MRSA 15-3 [6]: 16 µg/mL | Anti-bacterial activity (MIC), strain MRSA 15-4 [6]: 16 µg/mL | Anti-bacterial activity (MIC), strain MRSE 15-1 [7]: > 32 µg/mL | Anti-bacterial activity (MIC), strain MRSE 15-2 [7]: > 32 µg/mL | Anti-bacterial activity (MIC), strain MRSE 15-3 [7]: > 32 µg/mL | Anti-bacterial activity (MIC), strain MRSE 15-7 [7]: > 32 µg/mL | Anti-bacterial activity (MIC), strain MSSA 15-3 [8]: 16 µg/mL | Anti-bacterial activity (MIC), strain MSSA 15-4 [8]: 16 µg/mL | Anti-bacterial activity (MIC), strain MSSA 15-5 [8]: > 32 µg/mL | Anti-bacterial activity (MIC), strain MSSA 15-6 [8]: > 32 µg/mL | Anti-bacterial activity (MIC), strain MSSE 15-3 [9]: > 32 µg/mL | Anti-bacterial activity (MIC), strain MSSE 15-4 [9]: > 32 µg/mL | Anti-bacterial activity (MIC), strain MSSE 15-5 [9]: > 32 µg/mL | Anti-bacterial activity (MIC), strain MSSE 15-6 [9]: > 32 µg/mL | inhibition at 30 µM [10]: 8%
